# Experimental data taken from BindingDB's records for patent US12378251 (Shanghai Institute Of Materia Medica, 2025).
# Target: NEDD8-activating enzyme E1 regulatory subunit/NEDD8-activating enzyme E1 catalytic subunit (Human, UniProt Q8TBC4)
# Assay: Test of Inhibiting NAE Enzyme Activity at the Molecular Level
# Experimental: 1. Preliminary Evaluation Experiment of Inhibiting NAE Enzyme Activity at the Molecular Level by CompoundsHomogeneous Time-Resolved Fluorescence (HTRF) technology was used to detect the in vitro inhibitory effect of the compound on NAE enzyme activity. […] IC50 was calculated with a GraphPad software.
# NEDD8-activating enzyme E1 regulatory subunit/NEDD8-activating enzyme E1 catalytic subunit, sequence (Q13564 whole entry): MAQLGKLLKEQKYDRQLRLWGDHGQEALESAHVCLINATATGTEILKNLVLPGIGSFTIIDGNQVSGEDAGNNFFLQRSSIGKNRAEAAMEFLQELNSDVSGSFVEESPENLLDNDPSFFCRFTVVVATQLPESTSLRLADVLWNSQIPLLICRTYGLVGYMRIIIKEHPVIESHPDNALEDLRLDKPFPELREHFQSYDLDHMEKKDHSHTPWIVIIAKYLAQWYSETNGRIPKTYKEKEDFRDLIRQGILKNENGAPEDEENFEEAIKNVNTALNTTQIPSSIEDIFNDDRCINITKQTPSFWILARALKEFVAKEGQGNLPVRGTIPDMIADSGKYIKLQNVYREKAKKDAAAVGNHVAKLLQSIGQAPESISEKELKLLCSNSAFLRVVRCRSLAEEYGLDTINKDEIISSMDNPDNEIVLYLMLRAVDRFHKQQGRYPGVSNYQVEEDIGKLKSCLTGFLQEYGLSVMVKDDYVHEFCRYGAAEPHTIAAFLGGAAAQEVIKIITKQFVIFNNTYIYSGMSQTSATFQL
# NEDD8-activating enzyme E1 regulatory subunit/NEDD8-activating enzyme E1 catalytic subunit, sequence (Q8TBC4 whole entry): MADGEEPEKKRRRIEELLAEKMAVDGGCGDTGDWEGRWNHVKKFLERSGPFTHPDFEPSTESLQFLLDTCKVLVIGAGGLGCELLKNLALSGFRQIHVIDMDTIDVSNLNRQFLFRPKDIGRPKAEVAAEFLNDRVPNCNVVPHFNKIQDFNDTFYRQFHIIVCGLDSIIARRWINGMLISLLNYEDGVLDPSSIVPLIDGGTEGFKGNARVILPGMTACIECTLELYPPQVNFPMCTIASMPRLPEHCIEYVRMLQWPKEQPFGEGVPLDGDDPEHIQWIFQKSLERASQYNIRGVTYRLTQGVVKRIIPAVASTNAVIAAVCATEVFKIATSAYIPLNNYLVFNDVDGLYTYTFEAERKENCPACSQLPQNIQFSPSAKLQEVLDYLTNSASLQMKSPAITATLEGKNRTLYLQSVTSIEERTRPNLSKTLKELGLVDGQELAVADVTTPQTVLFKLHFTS
row,IC50 [nM],Structure (SMILES)
1,> 1000,"NS(=O)(=O)OCC1CC(n2nnc3c(Nn4ccc5ccccc54)ncnc32)CC1O (centres undefined) [US12378251, Compound S18]"
2,< 100,"NS(=O)(=O)OCC1CC(n2nnc3c(N[C@H]4CC5(CCNCC5)c5ccccc54)ncnc32)CC1O (some centres undefined) [US12378251, Compound S14]"
3,< 100,"CCCCCCNc1ncnc2c1nnn2C1CC(O)C(COS(N)(=O)=O)C1 (centres undefined) [US12378251, Compound S8]"
4,> 1000,"NS(=O)(=O)OC[C@@H]1C[C@@H](n2nnc3c(N[C@@H]4C[C@H]4c4ccc(F)c(F)c4)ncnc32)CC1O (some centres undefined) [US12378251, Compound S16]"
5,< 100,"NS(=O)(=O)OCC1CC(n2nnc3c(N[C@@H]4c5ccccc5C[C@@H]4O)ncnc32)CC1O (some centres undefined) [US12378251, Compound S9]"
6,> 1000,"NS(=O)(=O)OCC1CC(n2nnc3c(NC4CCCC4)ncnc32)CC1O (centres undefined) [US12378251, Compound S21]"
7,> 1000,"NS(=O)(=O)OCC1CC(n2nnc3c(Nc4n[nH]c5ccccc45)ncnc32)CC1O (centres undefined) [US12378251, Compound S17]"
8,> 1000,"NS(=O)(=O)OCC1CC(n2nnc3c(Nc4cnc5ccccn45)ncnc32)CC1O (centres undefined) [US12378251, Compound S19]"

# Continued, compound first:
row,Structure (SMILES),IC50 [nM]
1,"NS(=O)(=O)OCC1CC(n2nnc3c(NCc4cccs4)ncnc32)CC1O (centres undefined) [US12378251, Compound S3]",< 100
2,"NS(=O)(=O)OCC1CC(n2nnc3c(NCCc4ccccc4)ncnc32)CC1O (centres undefined) [US12378251, Compound S6]",< 100
3,"COC(=O)[C@H]1C=C[C@@H](Nc2ncnc3c2nnn3C2CC(O)C(COS(N)(=O)=O)C2)C1 (some centres undefined) [US12378251, Compound S20]",< 100
4,"NS(=O)(=O)OCC1CC(n2nnc3c(NCc4ccccc4F)ncnc32)CC1O (centres undefined) [US12378251, Compound S2]",< 100
5,"NS(=O)(=O)OCC1CC(n2nnc3c(N[C@H]4CCc5ccccc54)ncnc32)CC1O (some centres undefined) [US12378251, Compound S1]",< 100
6,"NS(=O)(=O)OCC1CC(n2nnc3c(NCc4ccco4)ncnc32)CC1O (centres undefined) [US12378251, Compound S4]",< 100
